Results taken from US11040954B1, “CXCR3 receptor agonists” (RECEPTOS LLC, priority 2016, dated 2021).

Assays:
[1] = Mouse pharmacokinetics after oral gavage, plasma drug concentration by LC-MS/MS (BALB/c); assay type: in vivo; details: 10 mg/kg, male mice; for Cmax / AUC(0-t): mouse, plasma; for AUC(0-t): read-out: AUC0-24
Method: (§1) Compounds were formulated in 5% DMSO/5% Tween20 in H2O, sonicated, vortexed, and put on stir plate overnight at a dose volume of 10 mL/kg. Balb/C (Jackson laboratories) or C57bl/6 (Taconic Biosciences) mice (8-9 weeks old) were acclimated to the colony for 3 days prior to dosing. Water and food were provided ab libitum. Compounds were administered by oral gavage. Groups of six animals received 3 to 4 bleeds per day with one terminal bleed. The time points were 30 min, 1 h, 2 h, 4 h, 6 h, 8 h, 24 h. Plasma was collected via centrifugation and analyzed for drug concentrations.
(§2) Preparation of Study Samples and Standards for Analysis by LC-MS/MS
(§3) 50 μl of plasma was aliquoted into a 96 well deep-well polypropylene plate (2 mL) to which 5 μL of DMSO was added. For standards, 5 μl of test compound in DMSO at […] the standard concentration was added to 50 μl of blank matrix in a 96 well deep-well polypropylene plate. For example, for a 300 nM standard, the 10× DMSO concentration was 3 μM. Study samples that require dilution are diluted with the appropriate blank matrix. For example, for a 10× dilution, 5 μL of study sample is added to 45 μl of blank matrix. Protein was precipitated from study samples and standards with the addition of 150 μl of acetonitrile. After a clean plate map was placed firmly over the top of the 96-well plate, a bench top shaker was used for 1 min to ensure complete precipitation of protein. The precipitated protein was pelleted by centrifuging for 3,000 rpm for 10 min at 20° C. and then the clear supernatant was transferred to a clean 96-well plate and spun again under the same conditions in order to pellet any solid material that may have been transferred.
(§4) Analysis of Study Samples and Standards with LCMS with MRM Detection
(§5) An Agilent 1200 HPLC with binary pump and a Leap CTC with fast wash autosampler were used to introduce samples to the mass spectrometer.
(§6) The column used was a Phenomenex Luna C8 30×2 mm 5 μm with a security guard. Mass detection was performed by an Applied Biosystems 4000 Qtrap in MRM mode and ionization was achieved by positive electrospray with a source temperature of 500° C. The ion transitions, […] potential and collision energies were dependent on the specific analyte.
(§7) Prepared samples were usually analyzed in reverse chronological order with bracketing standard curves. Typically at least 6 standards were used for quantification with a percent accuracy of +/−15% for all standards except at the LLOQ where a percent accuracy of +/−20% was allowed. The concentration time profile was fit using a one compartment model for the applicable mode of dosing using Phoenix WinNonLin 6.4.

[2] = Mouse pharmacokinetics after oral gavage, plasma drug concentration by LC-MS/MS (C57BL/6); assay type: in vivo, C57bl/6 mice; details: C57BL/6, 10 mg/kg, male mice; for Cmax / AUC(0-t): mouse, plasma; for AUC(0-t): read-out: AUC0-24
Method: as §1, §2, §3, §4, §5, §6, §7

CXCR3 = target: T1, CXCR3 (Homo sapiens, UniProt P49682); assay: CXCR3 cAMP agonist assay (cAMP Hunter CHOK1 CXCR3 Gi cell line, forskolin-stimulated, HitHunter cAMP detection); assay type: cell-based; details: cAMP Hunter CHOK1 CXCR3 Gi cells, 20 μM forskolin, 30 minutes; read-out: Activity (CXCR3 cAMP agonist assay compound EC50)
T1 construct: host or cells: CHO-K1 (cAMP Hunter CHOK1 CXCR3 Gi cell line)
T1 sequence (P49682 1-368): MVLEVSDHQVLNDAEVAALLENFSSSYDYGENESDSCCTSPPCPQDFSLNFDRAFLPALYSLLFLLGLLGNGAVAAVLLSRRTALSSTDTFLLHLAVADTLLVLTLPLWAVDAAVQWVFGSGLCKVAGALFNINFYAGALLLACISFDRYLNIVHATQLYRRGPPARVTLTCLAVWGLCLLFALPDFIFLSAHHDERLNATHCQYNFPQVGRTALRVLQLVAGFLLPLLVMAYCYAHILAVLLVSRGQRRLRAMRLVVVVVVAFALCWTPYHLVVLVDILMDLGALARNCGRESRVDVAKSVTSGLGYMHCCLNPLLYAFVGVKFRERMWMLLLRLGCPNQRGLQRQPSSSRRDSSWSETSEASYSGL
In short: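 CHOK1 cells expressing human CXCR3 with Gi coupling, 50,000/well in suspension in HBSS/10 mM HEPES/0.1% BSA pH 7.4, were co-treated with 20 μM forskolin and compound (12-point, 0-10 μM, 1% DMSO) for 30 min. cAMP was read by enzyme-complementation luminescence; CXCL11 dose response set maximum efficacy.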

| SMILES | apparent oral clearance (CL/F) [1] [mL/min/kg] | Cmax [1] [nM] | AUC(0-t) [1] [µM·h] | apparent oral clearance (CL/F) [2] [mL/min/kg] | Cmax [2] [nM] | AUC(0-t) [2] [µM·h] | EC50 (CXCR3) [nM] |
| --- | --- | --- | --- | --- | --- | --- | --- |
| Cc1cc(NC(=O)[C@H](CCCCNC(C)C)NC(=O)[C@@H]2Cc3ccccc3CN2C(=O)CCC(=O)c2ccccc2)ccc1Cl [Compound 4-6] | 158 | 1200 | 1.7 | 2346 | 70 | 0.11 | < 50 |
| Cc1cc(NC(=O)[C@H](CCNC(C)C)NC(=O)[C@@H]2Cc3ccccc3CN2C(=O)CCC(=O)c2ccccc2)ccc1Cl [Compound 8-3] | 56 | 800 | 4.9 | 246 | 330 | 1.2 | < 50 |
